The NIST ThermoML archive (doi:10.1016/j.jct.2006.04.007)

Assay: mn = molality of the nth substance listed, in mol/kg
Conditions: 350 kPa, Liquid; for apparent molar heat capacity: Extra sensitive DSC

CNC(C)=O [N-methylacetamide] + O
Conditions | apparent molar heat capacity [J/K/mol] | mass density [kg/m3]
328.15 K, m1 = 0.2002 | – | 985.56
328.15 K, m1 = 0.4 | – | 985.32
328.15 K, m1 = 0.599 | – | 985.18
328.15 K, m1 = 0.8028 | – | 985.04
328.15 K, m1 = 1 | – | 984.85
333.15 K, m1 = 0.015 | 260 | –
333.15 K, m1 = 0.04 | 265.7 | –
333.15 K, m1 = 0.07 | 267 | –
333.15 K, m1 = 0.1001 | 271.2 | –
333.15 K, m1 = 0.2002 | 271 | –
333.15 K, m1 = 0.4 | 267.55 | –
333.15 K, m1 = 0.599 | 274.8 | –
333.15 K, m1 = 0.8028 | 266.47 | –
333.15 K, m1 = 1 | 265.86 | –
338.15 K, m1 = 0.015 | 264 | –
338.15 K, m1 = 0.04 | 266.3 | –
338.15 K, m1 = 0.07 | 269.1 | –
338.15 K, m1 = 0.1001 | 272.8 | –
338.15 K, m1 = 0.2002 | 272.4 | –
338.15 K, m1 = 0.4 | 269.46 | –
338.15 K, m1 = 0.599 | 276.4 | –
338.15 K, m1 = 0.8028 | 268.26 | –
338.15 K, m1 = 1 | 267.6 | –
343.15 K, m1 = 0.015 | 268 | –
343.15 K, m1 = 0.04 | 267.1 | –
343.15 K, m1 = 0.07 | 270.8 | –
343.15 K, m1 = 0.1001 | 274.1 | –
343.15 K, m1 = 0.2002 | 273.7 | –
343.15 K, m1 = 0.4 | 271.09 | –
343.15 K, m1 = 0.599 | 277.9 | –
343.15 K, m1 = 0.8028 | 269.89 | –
343.15 K, m1 = 1 | 269.2 | –
348.15 K, m1 = 0.015 | 271 | 974.89
348.15 K, m1 = 0.04 | 268.3 | 974.87
348.15 K, m1 = 0.07 | 272.5 | 974.87
348.15 K, m1 = 0.1001 | 275.2 | 974.82
348.15 K, m1 = 0.2002 | 274.9 | 974.63
348.15 K, m1 = 0.4 | 272.57 | 974.29
348.15 K, m1 = 0.599 | 279.4 | 974.05
348.15 K, m1 = 0.8028 | 271.43 | 973.79
348.15 K, m1 = 1 | 270.73 | 973.51
353.15 K, m1 = 0.015 | 273 | –
353.15 K, m1 = 0.04 | 269.5 | –
353.15 K, m1 = 0.07 | 274 | –
353.15 K, m1 = 0.1001 | 276.3 | –
353.15 K, m1 = 0.2002 | 276 | –
353.15 K, m1 = 0.4 | 273.95 | –
353.15 K, m1 = 0.599 | 280.7 | –
353.15 K, m1 = 0.8028 | 272.85 | –
353.15 K, m1 = 1 | 272.12 | –
358.15 K, m1 = 0.015 | 274 | 968.67
358.15 K, m1 = 0.04 | 270.2 | 968.65
358.15 K, m1 = 0.07 | 275.5 | 968.63
358.15 K, m1 = 0.1001 | 277.5 | 968.56
358.15 K, m1 = 0.2002 | 277.2 | 968.36
358.15 K, m1 = 0.4 | 275.31 | 967.97
358.15 K, m1 = 0.599 | 281.9 | 967.67
358.15 K, m1 = 0.8028 | 274.18 | 967.36
358.15 K, m1 = 1 | 273.45 | 967.06
363.15 K, m1 = 0.015 | 276 | –
363.15 K, m1 = 0.04 | 270.5 | –
363.15 K, m1 = 0.07 | 277.1 | –
363.15 K, m1 = 0.1001 | 278.7 | –
363.15 K, m1 = 0.2002 | 278.5 | –
363.15 K, m1 = 0.4 | 276.62 | –
363.15 K, m1 = 0.599 | 283.1 | –
363.15 K, m1 = 0.8028 | 275.42 | –
363.15 K, m1 = 1 | 274.69 | –
368.15 K, m1 = 0.015 | 277 | 961.97
368.15 K, m1 = 0.04 | 270.9 | 961.92
368.15 K, m1 = 0.07 | 278.3 | 961.9
368.15 K, m1 = 0.1001 | 279.7 | 961.83
368.15 K, m1 = 0.2002 | 279.5 | 961.62
368.15 K, m1 = 0.4 | 277.76 | 961.19
368.15 K, m1 = 0.599 | 284.1 | 960.81
368.15 K, m1 = 0.8028 | 276.51 | 960.43
368.15 K, m1 = 1 | 275.75 | 960.09
373.15 K, m1 = 0.015 | 277 | –
373.15 K, m1 = 0.04 | 270.8 | –
373.15 K, m1 = 0.07 | 279.3 | –
373.15 K, m1 = 0.1001 | 280.7 | –
373.15 K, m1 = 0.2002 | 280.5 | –
373.15 K, m1 = 0.4 | 278.82 | –
373.15 K, m1 = 0.599 | 285.12 | –
373.15 K, m1 = 0.8028 | 277.53 | –
373.15 K, m1 = 1 | 276.77 | –
378.15 K, m1 = 0.015 | 275 | –
378.15 K, m1 = 0.04 | 270.6 | –
378.15 K, m1 = 0.07 | 280 | –
378.15 K, m1 = 0.1001 | 281.5 | –
378.15 K, m1 = 0.2002 | 281.4 | –
378.15 K, m1 = 0.4 | 279.75 | –
378.15 K, m1 = 0.599 | 286.01 | –
378.15 K, m1 = 0.8028 | 278.43 | –
378.15 K, m1 = 1 | 277.65 | –
383.15 K, m1 = 0.015 | 273 | –
383.15 K, m1 = 0.04 | 270.2 | –
383.15 K, m1 = 0.07 | 280.4 | –
383.15 K, m1 = 0.1001 | 282.2 | –
383.15 K, m1 = 0.2002 | 282.2 | –
383.15 K, m1 = 0.4 | 280.52 | –
383.15 K, m1 = 0.599 | 286.77 | –
383.15 K, m1 = 0.8028 | 279.21 | –
383.15 K, m1 = 1 | 278.41 | –
388.15 K, m1 = 0.015 | 273 | –
388.15 K, m1 = 0.04 | 270.5 | –
388.15 K, m1 = 0.07 | 281.2 | –
388.15 K, m1 = 0.1001 | 282.6 | –
388.15 K, m1 = 0.2002 | 282.8 | –
388.15 K, m1 = 0.4 | 281.15 | –
388.15 K, m1 = 0.599 | 287.45 | –
388.15 K, m1 = 0.8028 | 279.89 | –
388.15 K, m1 = 1 | 279.13 | –
393.15 K, m1 = 0.015 | 278 | –
393.15 K, m1 = 0.04 | 273.2 | –
393.15 K, m1 = 0.07 | 282.4 | –
393.15 K, m1 = 0.1001 | 281.9 | –
393.15 K, m1 = 0.2002 | 282.8 | –
393.15 K, m1 = 0.4 | 281.41 | –
393.15 K, m1 = 0.599 | 287.87 | –
393.15 K, m1 = 0.8028 | 280.37 | –
393.15 K, m1 = 1 | 279.71 | –
